Marks after values point to notes of the source that are not given here.
Legend:
[1] = test system: imiquimod-induced skin lesions; experiment: Imiquimod-induced psoriasis model in mice: clinical signs and dorsal skin histopathology; format: in vivo; parameters: key to Hyperkeratosis, protective effect / Epidermal serocellular crust, protective effect / Acanthosis, protective effect / Dermal inflammatory infiltrates, protective effect: the (+) sign represents the presence of a protective effect; a (−) sign represents the absence of protective effect; conditions: for Acanthosis (0-4), group mean score of dorsal skin / Basliar papillae (0-4), group mean score of dorsal skin / Dermal inflammatory infiltrates (0-4), group mean score of dorsal skin / Dilated tortuous capillaries (0-4), group mean score of dorsal skin / Epidermal micro-abscesses (0-4), group mean score of dorsal skin / Epidermal serocellular rust (0-4), group mean score of dorsal skin / Hyperkeratosis (0-4), group mean score of dorsal skin / Mean Global Score, dorsal skin / Parakeratosis (0-4), group mean score of dorsal skin: psoriatic mice; for Acanthosis (0-4), group mean score of dorsal skin / Basliar papillae (0-4), group mean score of dorsal skin / Dermal inflammatory infiltrates (0-4), group mean score of dorsal skin / Dilated tortuous capillaries (0-4), group mean score of dorsal skin / Epidermal micro-abscesses (0-4), group mean score of dorsal skin / Epidermal serocellular rust (0-4), group mean score of dorsal skin / Hyperkeratosis (0-4), group mean score of dorsal skin / Mean Global Score, dorsal skin / Parakeratosis (0-4), group mean score of dorsal skin / severity of microscopic alterations of back skin (histopathology): QD 9 days
Source text: To test whether Compound I might ameliorate the signs of psoriasis, we topically administered Compound I to imiquimod-induced skin lesions in mice. The imiquimod mouse model of psoriasis-like skin inflammation is characterized by lesions that show augmented epidermal cell proliferation, abnormal keratinocyte differentiation, neutrophil accumulation in epidermal microabcesses, and neoangiogenesis.
For this study, thirty two 8-week old female Balbc/J mice were housed […] in positively ventilated polysulfonate cages with HEPA filtered air at a density of 4 mice per cage. The animal room was lighted entirely with artificial fluorescent lighting, with a controlled 12 h light/dark cycle (6 am to 6 pm light). The normal temperature and relative humidity ranges in the animal rooms were 22±4° C. and 50±15%, respectively. The animal rooms were set to have a minimum of 15 air exchanges per hour. Filtered tap water, acidified to a pH of 2.5 to 3.0, and standard rodent chow were provided ad libitum. After 1 week of acclimation mice were randomized into 4 groups (n=8/each) as shown below (Table 1).
1. IMQ induction: On day 0 all grouped mice received a topical dose of 62.5 mg of IMQ cream (5%) on the shaved back for 6 consecutive days. (Day 0 to Day 5)
3. Mice were scored for clinical parameters of disease based on degree of erythema, scaling and thickening independently on a scale of 0-4. 0=none; 1=slight; 2=moderate; 3=moderate to severe: 4=severe. These observations were recorded on day 0, 2, 4, 6, and 8. On the same days, back skin thickness was measured with calipers.
5. Mice were sacrificed on day 10 by CO2 asphyxiation.
6. A part of the back skin was harvested and fixed for histology. Slides were processed, stained with H&E for histology assessment.
Dorsal skin sections were evaluated histopathologically for evidence of key features of psoriasis, such as parakeratosis, hyperkeratosis (thickening of the stratum corneum), acanthosis (diffuse thickening of the stratum spinosum of the skin), epidermal serocellular crusts, epidermal microabscesses, basilar papillae, dermal inflammatory infiltrates and dilated tortuous capillaries (Table 2. Histopathological scoring system and definition used in the Imiquimod psoriasis model).

[2] = test system: LXR-alpha; experiment: LXR-alpha expression in HepG2 cells (real time PCR); format: cell-based, human; conditions: 10 uM, 6 h
Description: The cells were incubated for 6 h in the presence of either Compound I (10 uM), or Compound II (10 uM), or the commercial LXR agonist GW3965 (1 uM), or Vehicle [DMSO, 0.1% (v/v)]). To obtain RNA, at the end of the incubation the cells were collected by centrifugation at 1,000 rpm for 2 min, washed with phosphate buffered saline, and lysed in 300 ul TRIZOL (Invitrogen). RNA samples were suspended in ul of RNAse free water, and their concentration determined (NanoDrop spectrophotometer). The ratio of the absorbance at 260 and 280 nm was used to assess RNA purity of an RNA preparation, with a value of 1.8-2.0 indicating pure RNA. To obtain cDNA, 1 ug of total RNA was denatured by incubating for 5 min at 70° C., before the addition of a mixture containing 0.5 ug oligo-dT primers and 25 ng/ml of random primers (Invitrogen), 1.0 mM dNTPs (Invitrogen), and 200 U M-MLV reverse transcriptase (Promega); after this the mixture was retrotranscribed at 37° C. for 60 min, followed by an incubation at 95° C. for 5 min to inactivate the enzyme. For the real time PCR amplification (Stratagene Thermal Cycler), cDNA samples were diluted 1/5 to 1/10 depending on the target amplification product. Calibration curves were obtained by use of eight successive 1:2 sample dilutions. […]

[3] = Liver weight and gross morphology (hepatic steatosis) in C57BI mice after 5 days i.p. treatment; format: in vivo; conditions: male C57BI mice; Compound I 10 mg/kg i.p. daily for 5 days
Description: Administration of synthetic LXR agonists such as T0901317 induces a marked increment of liver lipogenesis that leads to hepatic steatosis and plasma hypertriglyceridemia.
Male C57BI mice received daily for 5 days intraperitoneal injections containing either 10 mg Compound I/kg, or 5 mg T0901317/kg, or vehicle [90% (v/v) DMSO in apyrogenic sterile water]. On the sixth day of the assay, the animals were fasted for 4 h before decapitation. Blood plasma was obtained for the determination of total cholesterol, HDL-cholesterol and triglyceride contents. The livers were resected, and their weights and colors used as gross markers of increased liver triglyceride contents.

[4] = 0.1% (w/v) Compound I vs 0.1% (w/v) Clobetasol as printed
[5] = topical 0.10%, summary of Table 3

In the case of `CC[C@@H](C(C)C)[C@H](O)[C@@H](O)[C@@H](C)[C@H]1CC[C@H]2[C@@H]3CCC4=CC(=O)CC[C@]4(C)[C@H]3CC[C@]12C` [Compound I, (22S,23S)-22,23-dihydroxystigmast-4-en-3-one], the “epidermal sero-cellular crust reduced relative to Clobetasol-treated mice” value [1, 4] is reported as 50%, the “hyperkeratosis reduced relative to Clobetasol-treated mice” value [1, 4] is reported as 50% and the “global response score of dorsal skin, lower vs. vehicle-treated animals” value ([1]; Compound I 0.1% topical, 9 days) is reported as roughly 26%. For the same compound, the “back skin thickening (calipers)” value ([1]; after 9 days topical, Compound I 0.05% and 0.1% (w/v), clobetasol 0.05% cream) was “None of the assayed Compound I's doses prevented back skin thickening”, the “erythema reduction relative to vehicle-treated mice” value ([1]; day 8, both Compound I doses 0.05% and 0.1% (w/v), topical) was 50% and the “skin erythema (clinical score 0-4, in words)” value ([1]; day 8, topical QD 9 days, both Compound I doses 0.05% and 0.1% (w/v), clobetasol 0.05% cream) was “slight”. The “scaling (clinical score 0-4, in words)” value ([1]; day 8, topical QD 9 days, both Compound I doses, clobetasol 0.05% cream) was “no improvement”, the “Acanthosis (0-4), group mean score of dorsal skin” value ([1]; topical 0.05%) was 2.4 and the “Basliar papillae (0-4), group mean score of dorsal skin” value ([1]; topical 0.05%) was 0.0. The “Dermal inflammatory infiltrates (0-4), group mean score of dorsal skin” value ([1]; topical 0.05%) was 2.0, the “Dilated tortuous capillaries (0-4), group mean score of dorsal skin” value ([1]; topical 0.05%) was 0.0 and the “Epidermal micro-abscesses (0-4), group mean score of dorsal skin” value ([1]; topical 0.05%) was 0.0. The “Epidermal serocellular rust (0-4), group mean score of dorsal skin” value ([1]; topical 0.05%) was 0.4, the “Hyperkeratosis (0-4), group mean score of dorsal skin” value ([1]; topical 0.05%) was 1.3* and the “Mean Global Score, dorsal skin” value ([1]; topical 0.05%) was 6.4. For the same compound, the “Parakeratosis (0-4), group mean score of dorsal skin” value ([1]; topical 0.05%) was 0.4, the “Acanthosis (0-4), group mean score of dorsal skin” value ([1]; topical 0.10%) was 2.1 and the “Basliar papillae (0-4), group mean score of dorsal skin” value ([1]; topical 0.10%) was 0.0. For the same compound, the “Dermal inflammatory infiltrates (0-4), group mean score of dorsal skin” value ([1]; topical 0.10%) was 1.5, the “Dilated tortuous capillaries (0-4), group mean score of dorsal skin” value ([1]; topical 0.10%) was 0.0 and the “Epidermal micro-abscesses (0-4), group mean score of dorsal skin” value ([1]; topical 0.10%) was 0.0. The “Epidermal serocellular rust (0-4), group mean score of dorsal skin” value ([1]; topical 0.10%) was 0.3†, the “Hyperkeratosis (0-4), group mean score of dorsal skin” value ([1]; topical 0.10%) was 0.9** and the “Mean Global Score, dorsal skin” value ([1]; topical 0.10%) was 4.9. For the same compound, the “Parakeratosis (0-4), group mean score of dorsal skin” value ([1]; topical 0.10%) was 0.0, the “severity of microscopic alterations of back skin (histopathology)” value ([1]; topical 0.05%) was “slightly lower severity” and the “severity of microscopic alterations of back skin (histopathology)” value ([1]; topical 0.10% (w/v)) was “lower than in samples from vehicle-treated psoriatic controls and 0.05% (w/v) Compound I-treated mice”. For the same compound, the “Acanthosis, protective effect” value [1, 5] was “−”, the “Dermal inflammatory infiltrates, protective effect” value [1, 5] was “−” and the “Epidermal serocellular crust, protective effect” value [1, 5] was “+”. For the same compound, the “Hyperkeratosis, protective effect” value [1, 5] was “+”, the “induction of LXR-alpha expression compared with DMSO treated HepG2” value [2] was 1.5 times and the “liver (hepatic) steatosis” value [3] was “no signs”.
